Where “and” joins values, the source holds several entries; their conditions need not be identical. Equal values may be shown once. Inconclusive results and toxic doses are left out. Cut-off read from the data, not from the text of the source: active = T/C of 150% or more; inactive = T/C below 125%.
System: L1210 leukemia ip in BDF1 mice, survival T/C
Test: NCI In Vivo Anticancer Drug Screen. Data for tumor model L1210 Leukemia (intraperitoneal) in B6D2F1 (BDF1) mice
Conditions: endpoint: mean survival time, higher = longer survival
Procedure, shortened: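 Tumor was transplanted into mice, which were then dosed with test compound or vehicle alone. Survival was recorded for each group, and the treated figure was expressed relative to the control figure.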

[1] = dose: 100.0 mg/kg/injection, schedule: Q01DX009 (ip), vehicle: saline with Tween-80
[2] = dose: 100.0 mg/kg/injection, schedule: Q04DX003 (ip), vehicle: Klucel (hydroxypropylcellulose) (HPC)
[3] = dose: 200.0 mg/kg/injection, schedule: Q01DX009 (ip), vehicle: saline with Tween-80
[4] = dose: 200.0 mg/kg/injection, schedule: Q04DX003 (ip), vehicle: Klucel (hydroxypropylcellulose) (HPC)
[5] = dose: 400.0 mg/kg/injection, schedule: Q01DX009 (ip), vehicle: saline with Tween-80
[6] = dose: 400.0 mg/kg/injection, schedule: Q04DX003 (ip), vehicle: Klucel (hydroxypropylcellulose) (HPC)
[7] = dose: 100.0 mg/kg/injection, schedule: Q04DX003 (ip), vehicle: saline
[8] = dose: 50.0 mg/kg/injection, schedule: Q04DX003 (ip), vehicle: Klucel (hydroxypropylcellulose) (HPC)
[9] = dose: 50.0 mg/kg/injection, schedule: Q01DX009 (ip), vehicle: saline with Tween-80
[10] = dose: 100.0 mg/kg/injection, schedule: Q01DX001 (ip), vehicle: saline with Tween-80
[11] = dose: 100.0 mg/kg/injection, schedule: Q04DX002 (ip), vehicle: saline with Tween-80
[12] = dose: 200.0 mg/kg/injection, schedule: Q01DX001 (ip), vehicle: saline with Tween-80
[13] = dose: 200.0 mg/kg/injection, schedule: Q04DX002 (ip), vehicle: saline with Tween-80
[14] = dose: 400.0 mg/kg/injection, schedule: Q01DX001 (ip), vehicle: saline with Tween-80
[15] = dose: 400.0 mg/kg/injection, schedule: Q04DX002 (ip), vehicle: saline with Tween-80
[16] = dose: 25.0 mg/kg/injection, schedule: Q01DX009 (ip), vehicle: Klucel (hydroxypropylcellulose) (HPC)
[17] = dose: 50.0 mg/kg/injection, schedule: Q01DX009 (ip), vehicle: Klucel (hydroxypropylcellulose) (HPC)
[18] = dose: 100.0 mg/kg/injection, schedule: Q01DX009 (ip), vehicle: Klucel (hydroxypropylcellulose) (HPC)

Measured: T/C

COc1ccc(C(=O)N=C(c2ccccc2)c2ccccc2)cc1
inactive: [1] 95 % of control | [2] 92 % of control | [3] 98 % of control | [4] 97 % of control | [5] 93 % of control | [6] 95 % of control

O=[N+]([O-])c1ccccc1C(=Nc1ccccc1)c1c(O)cc(O)cc1O
inactive: dose: 100.0 mg/kg/injection, schedule: Q01DX009 (ip), vehicle: acetone 94 % of control | [7] 96 % of control | dose: 200.0 mg/kg/injection, schedule: Q01DX009 (ip), vehicle: acetone 100 % of control | dose: 200.0 mg/kg/injection, schedule: Q04DX003 (ip), vehicle: saline 101 % of control | dose: 400.0 mg/kg/injection, schedule: Q04DX003 (ip), vehicle: saline 98 % of control

Nc1nc2ncc(CNc3ncc(C(=O)NC(CCC(=O)O)C(=O)O)s3)nc2c(=O)[nH]1 (stereo unspecified)
inactive: dose: 50.0 mg/kg/injection, schedule: Q01DX001 (ip), vehicle: other 105 % of control | dose: 100.0 mg/kg/injection, schedule: Q01DX001 (ip), vehicle: other 106 % of control

COc1ccc(OC)c(NC(=O)Nc2ccc([As](=O)(O)O)cc2)c1
inactive: [8] 96 % of control | [2] 100 % of control | [4] 93 % of control and 88 % of control

O=c1cc[nH]c2n[nH]nc12
inactive: dose: 100.0 mg/kg/injection, schedule: Q01DX001 (ip), vehicle: Klucel (hydroxypropylcellulose) (HPC) 94 % of control | dose: 200.0 mg/kg/injection, schedule: Q01DX001 (ip), vehicle: Klucel (hydroxypropylcellulose) (HPC) 94 % of control | dose: 400.0 mg/kg/injection, schedule: Q01DX001 (ip), vehicle: Klucel (hydroxypropylcellulose) (HPC) 96 % of control

C=CCc1ccc(OC(=O)Nc2ccc(SC)cc2)c(OC)c1
inactive: [9] 95 % of control and 87 % of control | [10] 101 % of control | [11] 90 % of control and 91 % of control | dose: 100.0 mg/kg/injection, schedule: Q04DX003 (ip), vehicle: saline with Tween-80 94 % of control | [12] 98 % of control | [13] 93 % of control and 100 % of control | dose: 200.0 mg/kg/injection, schedule: Q04DX003 (ip), vehicle: saline with Tween-80 91 % of control | [14] 97 % of control | [5] 99 % of control and 89 % of control | [15] 94 % of control and 88 % of control | dose: 400.0 mg/kg/injection, schedule: Q04DX003 (ip), vehicle: saline with Tween-80 96 % of control

Cc1nc(NN)c(C(N)=O)nc1C
inactive: dose: 25.0 mg/kg/injection, schedule: Q01DX009 (ip), vehicle: saline 98 % of control | dose: 25.0 mg/kg/injection, schedule: Q04DX003 (ip), vehicle: saline 101 % of control | dose: 50.0 mg/kg/injection, schedule: Q01DX009 (ip), vehicle: saline 96 % of control | dose: 50.0 mg/kg/injection, schedule: Q04DX003 (ip), vehicle: saline 103 % of control | [7] 104 % of control

CCCCCCC/C=N/NC(=O)c1ccccc1
inactive: [2] 105 % of control | [4] 109 % of control | [6] 98 % of control

S=C(NCc1cccc(Cl)c1)Nc1ccccc1
inactive: [16] 98 % of control | [17] 106 % of control | [18] 93 % of control

CC(=O)N(c1ccc(NC(=O)c2ccc(N3C(=O)c4ccccc4C3=O)cc2[N+](=O)[O-])cc1)c1cc[n+](C)cc1
inactive: [10] 93 % of control and 90 % of control | [11] 101 % of control and 115 % of control | [12] 93 % of control and 108 % of control | [13] 101 % of control and 113 % of control | [14] 107 % of control and 90 % of control | [15] 96 % of control and 105 % of control

Cc1cc(CSC(=N)N)c(CSC(=N)N)cc1C
inactive: dose: 10.0 mg/kg/injection, schedule: Q01DX001 (ip), vehicle: saline 97 % of control | dose: 20.0 mg/kg/injection, schedule: Q01DX001 (ip), vehicle: saline 94 % of control | dose: 40.0 mg/kg/injection, schedule: Q01DX001 (ip), vehicle: saline 94 % of control

COc1cccc(Nc2ccc(C(=O)O)cc2[N+](=O)[O-])c1
inactive: dose: 100.0 mg/kg/injection, schedule: Q04DX003 (ip), vehicle: water 98 % of control | dose: 200.0 mg/kg/injection, schedule: Q04DX003 (ip), vehicle: water 103 % of control | dose: 400.0 mg/kg/injection, schedule: Q04DX003 (ip), vehicle: water 98 % of control

CN(C)CCN(Cc1ccccc1)c1ccccc1
inactive: [16] 98 % of control | dose: 25.0 mg/kg/injection, schedule: Q04DX003 (ip), vehicle: Klucel (hydroxypropylcellulose) (HPC) 95 % of control | [17] 102 % of control | [8] 103 % of control | [18] 106 % of control | [2] 103 % of control

O=[N+]([O-])c1ccc(NC(=S)Nc2cc([N+](=O)[O-])ccc2Cl)cc1
inactive: [9] 98 % of control | [1] 91 % of control | [3] 91 % of control

O=[N+]([O-])c1ccc(N=Cc2ccccc2O)c(O)c1
inactive: dose: 100.0 mg/kg/injection, schedule: Q01DX001 (ip), vehicle: carboxymethylcellulose (CMC) 95 % of control | dose: 200.0 mg/kg/injection, schedule: Q01DX001 (ip), vehicle: carboxymethylcellulose (CMC) 104 % of control | dose: 400.0 mg/kg/injection, schedule: Q01DX001 (ip), vehicle: carboxymethylcellulose (CMC) 94 % of control

CC(C#N)CC12CCCCC1CC/C(=C\c1ccccc1)C2 (stereo unspecified)
inactive: [2] 92 % of control | [4] 94 % of control | [6] 94 % of control

CCCC(=O)OCC
inactive: [18] 100 % of control | dose: 200.0 mg/kg/injection, schedule: Q01DX009 (ip), vehicle: Klucel (hydroxypropylcellulose) (HPC) 105 % of control | dose: 400.0 mg/kg/injection, schedule: Q01DX009 (ip), vehicle: Klucel (hydroxypropylcellulose) (HPC) 97 % of control
